Reference: patent publication US20230255906A1, “Targeting Serpin B9 in Cancer” (The Brigham and Women`s Hospital, Inc., priority 2020, published 2023)

system: B16 melanoma cells; assay: Caspase-3 activity assay (EnzChek Caspase-3 Assay Kit), caspase-3 induction in tumor cells; format: cell-based, mouse; conditions: not given; further: test concentration or dose not given here
Excerpt: The EnzChek® Caspase-3 Assay Kit was used to detect apoptosis by assaying for increases in caspase-3 activities. The basis for the assay was rhodamine 110 bis-(N-CBZ-L-aspartyl-L-glutamyl-L-valyl-L-aspartic acid amide) (Z-DEVD-R110). This substrate is a bisamide derivative of rhodamine 110 (R110) containing DEVD peptides covalently linked to each of R110's amino groups, thereby suppressing the dye's visible absorption and its fluorescence. Upon enzymatic cleavage, the nonfluorescent bisamide substrate is converted in a two-step process first to a fluorescent monoamide and then to an even more fluorescent R110.
At least 1×10^6 cells of the lysate were used for each reaction. B16 cells were treated with compounds to induce apoptosis. A negative control was prepared by incubating cells in the absence of compounds. The cells were incubated with compounds for 24 hrs and washed in PBS. Each cell sample or control was resuspended in 50 μL of the 1×cell lysis buffer. Cells were lysed by incubating on ice for 30 minutes, and the lysed cells were centrifuged to pellet the cellular debris. 50 μL of the supernatant was transferred from each sample to individual microplate wells. 50 μL of the 1× cell lysis buffer was used as a no-enzyme control to determine the background fluorescence of the substrate. 50 μL of the 2×substrate working solution was added to each sample and control. The microplate was covered, and the samples were incubated at room temperature for approximately 30 minutes. The fluorescence was measured by a fluorescence microplate reader (excitation/emission ˜496/520 nm) using excitation and emission filters.
The ability of this small molecule inhibitor to inhibit intracellular Sb9 was then evaluated. As a marker for cell penetration, the induction of caspase-3 activity in B16 melanoma cells as a surrogate marker for increased GrB activity was measured.
The induction of caspase-3 activity in B16 melanoma cells as a surrogate marker for increased GrB activity was also measured for other small molecules (compounds of Formulas (V) and (VI) as described herein).

| SMILES | Ratio of caspase-3 activity to Formula (III) |
| --- | --- |
| COc1cccc(-c2nc3ccc(C(=O)N(C)Cc4c(C)n[nH]c4C)cc3o2)c1 [N-[(3,5-dimethyl-1H-pyrazol-4-yl)methyl]-2-(3-methoxyphenyl)-N-methyl-1,3-benzoxazole-6-carboxamide] | 0.1324 |
| O=C(c1ccc2oc(-c3cccc(F)c3)nc2c1)N1CCC(O)(c2ccccc2)CC1 [1-{[2-(3-fluorophenyl)-1,3-benzoxazol-5-yl]carbonyl}-4-phenyl-4-piperidinol] | 0.1773 |
| O=C(c1ccc2oc(-c3ccc(C(F)(F)F)cc3)nc2c1)N1CCOCC1 [5-(4-morpholinylcarbonyl)-2-[4-(trifluoromethyl)phenyl]-1,3-benzoxazole] | 0.1317 |
| O=C(c1ccc2oc(-c3ccc(C(F)(F)F)cc3)nc2c1)N1CCC[C@H]1CO [[(2S)-1-({2-[4-(trifluoromethyl)phenyl]-1,3-benzoxazol-5-yl}carbonyl)-2-pyrrolidinyl]methanol] | 0.1353 |
| CC(C)N(Cc1nccn1C)C(=O)c1ccc2oc(-c3cccc(F)c3)nc2c1 [2-(3-fluorophenyl)-N-isopropyl-N-[(1-methyl-1H-imidazol-2-yl)methyl]-1,3-benzoxazole-5-carboxamide] | 1.634 |
| COCCOC1CCN(C(=O)c2ccc3oc(-c4cccc(F)c4)nc3c2)CC1 [2-(3-fluorophenyl)-5-{[4-(2-methoxyethoxy)-1-piperidinyl]carbonyl}-1,3-benzoxazole] | 0.1314 |
| O=C(c1ccc2oc(-c3cccc(F)c3)nc2c1)N1CCCCC1CO (stereo not drawn) [(1-{[2-(3-fluorophenyl)-1,3-benzoxazol-5-yl]carbonyl}-2-piperidinyl)methanol] | 1.133 |
| COc1cccc(-c2nc3ccc(C(=O)N4CCN(C5CCCC5)CC4)cc3o2)c1 [6-[(4-cyclopentyl-1-piperazinyl)carbonyl]-2-(3-methoxyphenyl)-1,3-benzoxazole] | 0.1582 |
| CCn1cc(CNC(=O)c2ccc3oc(-c4cccc(F)c4)nc3c2)cn1 [N-[(1-ethyl-1H-pyrazol-4-yl)methyl]-2-(3-fluorophenyl)-1,3-benzoxazole-5-carboxamide] | 1.163 |
| COc1cccc(-c2nc3ccc(C(=O)NCC4CCOCC4)cc3o2)c1 [2-(3-methoxyphenyl)-N-(tetrahydro-2H-pyran-4-ylmethyl)-1,3-benzoxazole-6-carboxamide] | 0.09286 |
| COc1cccc(-c2nc3ccc(C(=O)NCc4cnc(C)cn4)cc3o2)c1 [2-(3-methoxyphenyl)-N-[(5-methylpyrazin-2-yl)methyl]-1,3-benzoxazole-6-carboxamide] | 0.1387 |
| O=C(NCCn1cccn1)c1ccc2oc(-c3cccc(F)c3)nc2c1 [2-(3-fluorophenyl)-N-[2-(1H-pyrazol-1-yl)ethyl]-1,3-benzoxazole-5-carboxamide] | 0.4693 |

same assay, conditions: relative to compound of Formula (III)

| SMILES | Caspase-3 induction, Normalized to Formula (III) (%) |
| --- | --- |
| O=C(c1ccc2nc(S)oc2c1)N1CCCC1 [6-(pyrrolidine-1-carbonyl)-1,3-benzoxazole-2-thiol] | −30.7254 |
| COCCCNC(=O)c1cc(OC)c(O)c(OC)c1 [4-hydroxy-3,5-dimethoxy-N-(3-methoxypropyl)benzamide] | −23.5938 |
| CCN(C)C(=O)c1cccc2oc(N(C)C)nc12 [2-(dimethylamino)-N-ethyl-N-methyl-1,3-benzoxazole-4-carboxamide] | −25.6782 |
| O=C(NC1CCCC1)c1ccc2nc(C3CCCCC3)oc2c1 [2-cyclohexyl-N-cyclopentyl-1,3-benzoxazole-6-carboxamide] | 26.2507 |
| CCN(C)C(=O)c1ccc2nc(S)oc2c1 [N-ethyl-N-methyl-2-sulfanyl-1,3-benzoxazole-6-carboxamide] | −6.201 |
| O=C(c1ccc2nc(-c3cc(Cl)cc(Cl)c3)oc2c1)N1CCCC1 [2-(3,5-dichlorophenyl)-6-(pyrrolidine-1-carbonyl)-1,3-benzoxazole] | −6.23 |
| COc1cc(C(=O)NCCN(C)C)cc(OC)c1O [N-[2-(dimethylamino)ethyl]-4-hydroxy-3,5-dimethoxybenzamide] | −5.767 |
| CCOc1ccc(C(=O)NC2CCCC2)cc1O [N-cyclopentyl-4-ethoxy-3-hydroxybenzamide] | 4.1370 |
| O=C(NCc1ccccc1)c1ccc2nc(S)oc2c1 [N-benzyl-2-sulfanyl-1,3-benzoxazole-6-carboxamide] | −17.7286 |
| CCOc1ccc(C(=O)NCc2ccccc2)cc1O [N-benzyl-4-ethoxy-3-hydroxybenzamide] | 19.0685 |
| CCN(C)C(=O)c1ccc2nc(C3CCCO3)oc2c1 (stereo not drawn) [N-ethyl-N-methyl-2-(oxolan-2-yl)-1,3-benzoxazole-6-carboxamide] | 8.3538 |
| CCN(C)C(=O)c1cc(OC)c(O)c(OC)c1 [N-ethyl-4-hydroxy-3,5-dimethoxy-N-methylbenzamide] | −34.6356 |
| Cc1cc(O)c(O)cc1C(=O)NCc1ccccc1 [N-benzyl-4,5-dihydroxy-2-methylbenzamide] | −43.6184 |
| CCOc1ccc(C(=O)NCC(C)C)cc1O [4-ethoxy-3-hydroxy-N-(2-methylpropyl)benzamide] | −3.559 |
| O=C(NCc1ccccc1)c1ccc2nc(C3CCCO3)oc2c1 (stereo not drawn) [N-benzyl-2-(oxolan-2-yl)-1,3-benzoxazole-6-carboxamide] | −34.6335 |
| CC(C)CNC(=O)c1cc2c(cc1O)OCO2 [6-hydroxy-N-(2-methylpropyl)-2H-1,3-benzodioxole-5-carboxamide] | −31.2294 |
| COCCCNC(=O)c1ccc2nc(-c3cc(Cl)cc(Cl)c3)oc2c1 [2-(3,5-dichlorophenyl)-N-(3-methoxypropyl)-1,3-benzoxazole-6-carboxamide] | −31.5901 |
| O=C(NC1CCCC1)c1cc2c(cc1O)OCO2 [N-cyclopentyl-6-hydroxy-2H-1,3-benzodioxole-5-carboxamide] | −61.6444 |
| Cc1cc(O)c(O)cc1C(=O)N1CCCC1 [4-methyl-5-(pyrrolidine-1-carbonyl)benzene-1,2-diol] | −40.485 |
| COCCCNC(=O)c1cccc2oc(N(C)C)nc12 [2-(dimethylamino)-N-(3-methoxypropyl)-1,3-benzoxazole-4-carboxamide] | −31.049 |
| COc1cc(Br)c(C(=O)N2CCCC2)cc1OC [1-(2-bromo-4,5-dimethoxybenzoyl)pyrrolidine] | 18.4794 |
| Cc1cc(O)c(O)cc1C(=O)NCC(C)C [4,5-dihydroxy-2-methyl-N-(2-methylpropyl)benzamide] | −27.9096 |
| COCCCNC(=O)c1ccc2nc(C3CCCCC3)oc2c1 [2-cyclohexyl-N-(3-methoxypropyl)-1,3-benzoxazole-6-carboxamide] | −42.1813 |
| O=C(NCc1ccccc1)c1ccc2nc(-c3cc(Cl)cc(Cl)c3)oc2c1 [N-benzyl-2-(3,5-dichlorophenyl)-1,3-benzoxazole-6-carboxamide] | −36.0528 |
